Assay results taken from ChEMBL document CHEMBL1201862, “PubChem BioAssay data set” (2004).
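Protocol summary: plate cells (96-well), add compound at 5 concentrations, incubate 48 h, interpolate endpoints linearly. GI50 marks 50% less growth.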 Activity calls are given as the source filed them. Cut-off read from the data, not from the text of the source: active = GI50 up to about 1.1 µM and inactive = higher.

What was measured:
Test in all cases: NCI tumour cell line growth inhibition, 48 h
786-0 = test system: 786-0
ACHN = test system: ACHN
COLO 205 = test system: COLO 205
DU-145 = test system: DU-145
HCT-15 = test system: HCT-15
HOP-92 = test system: HOP-92
HT-29 = test system: HT-29
K562 = test system: K562
MDA-N = test system: MDA-N
Malme-3M = test system: Malme-3M
NCI-H226 = test system: NCI-H226
OVCAR-5 = test system: OVCAR-5
SK-OV-3 = test system: SK-OV-3
SN12C = test system: SN12C
SNB-75 = test system: SNB-75
T47D = test system: T47D
TK-10 = test system: TK-10
U-251 = test system: U-251
UO-31 = test system: UO-31
NCI-H460 = test system: NCI-H460

| SMILES | GI50 (786-0) | GI50 (ACHN) | GI50 (COLO 205) | GI50 (DU-145) | GI50 (HCT-15) [µM] | GI50 (HOP-92) | GI50 (HT-29) | GI50 (K562) | GI50 (MDA-N) | GI50 (Malme-3M) | GI50 (NCI-H226) | GI50 (OVCAR-5) | GI50 (SK-OV-3) | GI50 (SN12C) | GI50 (SNB-75) | GI50 (T47D) | GI50 (TK-10) | GI50 (U-251) | GI50 (UO-31) | GI50 (NCI-H460) |
| --- | --- | --- | --- | --- | --- | --- | --- | --- | --- | --- | --- | --- | --- | --- | --- | --- | --- | --- | --- | --- |
| CN1C(=O)N/C(=C\c2ccc(S(=O)(=O)NN)cc2)C1=O | > 100 µM (inactive) | > 100 µM (inactive) | > 100 µM (inactive) | > 100 µM (inactive) | > 100 | > 100 µM (inactive) | > 100 µM (inactive) | > 100 µM (inactive) | > 100 µM (inactive) | > 100 µM (inactive) | > 100 µM (inactive) | > 100 µM (inactive) | > 100 µM (inactive) | > 100 µM (inactive) | > 100 µM (inactive) | > 100 µM (inactive) | > 100 µM (inactive) | > 100 µM (inactive) | > 100 µM (inactive) |  |
| O=C(NCCCCCCNC(=O)n1cc(F)c(=O)[nH]c1=O)NCCCOCCOCCOCCOCCOCCOCCOCCOCCOCCOCCOCCOCCOCCOCCOCCOCCOCCOCCOCCOCCOCCCNC(=O)C(O)C(O)C(O)C(O)CO (configuration not stated) | 26.6 µM (inactive) | 26.7 µM (inactive) | 23.8 µM (inactive) | 25.4 µM (inactive) | 21 | > 18.4 µM (inactive) | 17.5 µM (inactive) | 34.8 µM (inactive) | 33.9 µM (inactive) | 20.2 µM (inactive) | > 100 µM (inactive) | > 96.4 µM (inactive) | > 100 µM (inactive) | 80 µM (inactive) | 73.1 µM (inactive) | > 100 µM (inactive) | 15.6 µM (inactive) | 70.6 µM (inactive) | 20.9 µM (inactive) | 5.37 µM (inactive) |
| c1c[nH]c(CN2CCOCC2)n1 | > 100 µM (inactive) | > 100 µM (inactive) | > 100 µM (inactive) | > 100 µM (inactive) | > 100 | > 100 µM (inactive) | > 100 µM (inactive) | > 100 µM (inactive) | > 100 µM (inactive) | > 100 µM (inactive) | > 100 µM (inactive) | > 100 µM (inactive) | > 100 µM (inactive) | > 100 µM (inactive) | > 100 µM (inactive) | > 100 µM (inactive) | > 100 µM (inactive) | > 100 µM (inactive) | > 100 µM (inactive) | > 100 µM (inactive) |
| COC(=O)C1=C([C@H]2COC(C)(C)O2)[C@H]2C[C@@H]1[C@@H]1OC(C)(C)O[C@@H]12 | > 100 µM (inactive) | > 100 µM (inactive) | > 100 µM (inactive) | > 100 µM (inactive) | > 100 | 38.7 µM (inactive) | > 100 µM (inactive) | > 100 µM (inactive) | > 100 µM (inactive) | > 100 µM (inactive) | > 100 µM (inactive) | > 100 µM (inactive) | > 100 µM (inactive) | > 100 µM (inactive) | > 100 µM (inactive) | > 100 µM (inactive) | > 100 µM (inactive) | > 100 µM (inactive) | > 100 µM (inactive) | > 100 µM (inactive) |
| CC(C)=CCC[C@](C)(O[C@@H]1O[C@H](CO)[C@@H](O)[C@H](O)[C@H]1O)[C@H]1CC[C@]2(C)[C@@H]1[C@H](O)C[C@@H]1[C@@]3(C)CC[C@H](O)C(C)(C)[C@@H]3[C@@H](O[C@@H]3O[C@H](CO)[C@@H](O)[C@H](O)[C@H]3O[C@@H]3O[C@@H](C)[C@H](O)[C@@H](O)[C@H]3O)C[C@]12C.CC(C)=CCC[C@](C)(O[C@@H]1O[C@H](CO)[C@@H](O)[C@H](O)[C@H]1O)[C@H]1CC[C@]2(C)[C@@H]1[C@H](O)C[C@@H]1[C@@]3(C)CC[C@H](O)C(C)(C)[C@@H]3[C@@H](O[C@@H]3O[C@H](CO)[C@@H](O)[C@H](O)[C@H]3O[C@@H]3O[C@H](CO)[C@@H](O)[C@H](O)[C@H]3O)C[C@]12C | > 75 µM (inactive) | > 75 µM (inactive) | > 75 µM (inactive) | > 75 µM (inactive) | > 75 | > 75 µM (inactive) | > 75 µM (inactive) | > 75 µM (inactive) | > 75 µM (inactive) |  | > 75 µM (inactive) | > 75 µM (inactive) | > 75 µM (inactive) | > 75 µM (inactive) | > 75 µM (inactive) | > 75 µM (inactive) | > 75 µM (inactive) | > 75 µM (inactive) | > 75 µM (inactive) | 7.5 µM (inactive) |
| CCN(CC)CCCNc1c2cc(OC)ccc2nc2cccc([N+](=O)[O-])c12 | 0.071 µM (active) | 0.0407 µM (active) | 0.0238 µM (active) | 0.0551 µM (active) | 0.0676 | 0.0484 µM (active) | 0.0456 µM (active) | 0.00643 µM (active) | 0.129 µM (active) | 0.118 µM (active) | 0.204 µM (active) | 0.0832 µM (active) | 0.246 µM (active) | 0.11 µM (active) | 0.151 µM (active) | 0.151 µM (active) | 0.195 µM (active) | 0.082 µM (active) | 0.0402 µM (active) | 0.0184 µM (active) |
| O=C(O)CN1CCN2CCOCCOCCN(CC1)CCN(CC(=O)O)CC2 | > 100 µM (inactive) | > 100 µM (inactive) | > 100 µM (inactive) | > 100 µM (inactive) | > 100 | > 100 µM (inactive) | > 100 µM (inactive) | > 100 µM (inactive) | > 100 µM (inactive) | > 100 µM (inactive) | > 100 µM (inactive) | > 100 µM (inactive) | > 100 µM (inactive) | > 100 µM (inactive) | > 100 µM (inactive) | > 100 µM (inactive) | > 100 µM (inactive) | > 100 µM (inactive) | > 100 µM (inactive) | > 100 µM (inactive) |
| CSc1nc(SC)c2ncn(C3CC(Oc4ccc(C)cc4)C(COc4ccc(C)cc4)O3)c2n1 (configuration not stated) | > 100 µM (inactive) | > 100 µM (inactive) | > 100 µM (inactive) | > 100 µM (inactive) | > 100 | > 100 µM (inactive) | > 100 µM (inactive) |  | > 100 µM (inactive) | > 100 µM (inactive) | > 100 µM (inactive) | > 100 µM (inactive) | > 100 µM (inactive) | > 100 µM (inactive) | 26.5 µM (inactive) | 63.1 µM (inactive) | > 100 µM (inactive) | > 100 µM (inactive) | 0.984 µM (active) | > 100 µM (inactive) |
| CCC/N=C/c1c(O)c(O)c(C(C)C)c2cc(C)c(-c3c(C)cc4c(C(C)C)c(O)c(O)c(/C=N/CCC)c4c3O)c(O)c12 | 10.2 µM (inactive) | 3.99 µM (inactive) | 5.25 µM (inactive) | 23.8 µM (inactive) | 7.46 | 2.49 µM (inactive) | 4.04 µM (inactive) | 2.96 µM (inactive) | 8.63 µM (inactive) |  | 14.6 µM (inactive) | 10 µM (inactive) | 4.75 µM (inactive) | 10.4 µM (inactive) | 8.79 µM (inactive) | 7.74 µM (inactive) | > 100 µM (inactive) | 2.07 µM (inactive) | 6.3 µM (inactive) | 4.38 µM (inactive) |
| CCOC(=O)C1=NN(c2ccc(C)cc2)C2(c3ccccc3)C=C(c3ccccc3)N(C)CCN12 (configuration not stated) | > 100 µM (inactive) | > 100 µM (inactive) | > 100 µM (inactive) | > 100 µM (inactive) | > 100 | > 100 µM (inactive) | > 100 µM (inactive) | 71 µM (inactive) | > 100 µM (inactive) | > 100 µM (inactive) | > 100 µM (inactive) | > 100 µM (inactive) | > 100 µM (inactive) | > 100 µM (inactive) | > 100 µM (inactive) | > 100 µM (inactive) | > 100 µM (inactive) | > 100 µM (inactive) | > 100 µM (inactive) |  |
| O=C(O)c1ccc(CI)cc1 | 3.24 µM (inactive) | 15.7 µM (inactive) | 15.4 µM (inactive) | 18.4 µM (inactive) | 16 | 15.8 µM (inactive) | 15.1 µM (inactive) | 23.7 µM (inactive) | 15.5 µM (inactive) | 10.6 µM (inactive) | 22.2 µM (inactive) | 18.7 µM (inactive) | 25.4 µM (inactive) | 17 µM (inactive) | 33.2 µM (inactive) | 25 µM (inactive) |  | 7.85 µM (inactive) | 18 µM (inactive) | 15.6 µM (inactive) |
| CCc1nc(N)nc(N)c1-c1ccc(Cc2ccccc2)c([N+](=O)[O-])c1 | < 0.01 µM (active) | < 0.01 µM (active) | 0.561 µM (active) | 0.0585 µM (active) | < 0.01 | 1.17 µM (inactive) | < 0.01 µM (active) | < 0.01 µM (active) | < 0.046 µM (active) |  | 27.6 µM (inactive) | > 55 µM (inactive) | 7.87 µM (inactive) | 0.247 µM (active) | 23.3 µM (inactive) | 6.95 µM (inactive) | 29.5 µM (inactive) | < 0.0178 µM (active) | 0.124 µM (active) | < 0.01 µM (active) |
| CC(=O)C1COC(O)C1C (configuration not stated) | 21.3 µM (inactive) | 23.9 µM (inactive) | 17 µM (inactive) | 28.3 µM (inactive) | 18.5 | 27.2 µM (inactive) | 29.4 µM (inactive) | 26.5 µM (inactive) | 21.3 µM (inactive) |  | 21.4 µM (inactive) | 27.2 µM (inactive) | 31 µM (inactive) | 20.7 µM (inactive) | 23.3 µM (inactive) | 35.2 µM (inactive) | 28.6 µM (inactive) | 23.4 µM (inactive) | 17.7 µM (inactive) | 18.3 µM (inactive) |
